± gives the standard deviation of the averaged measurements.
Tests used:
TIOGUANINE = compound: Nc1nc2[nH]cnc2c(=S)[nH]1 [TIOGUANINE]; test: surviving fraction relative to DMSO-only wells; higher = less growth inhibition; conditions: exposure time: 5 days
Procedure, shortened: (§1)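 Viability values are CellTiter-Glo luminescence readings, given as surviving fraction against the median of DMSO-only wells. The readings were taken after 10 minutes at room temperature, following five days of continuous exposure to inhibitors at 0.5, 1, 5, 10, 50, 100, 500 and 1000 nM that began 24 hours after log-phase tumour cell lines were seeded at 250–500 cells per well in 384-well plates. Every line was screened three times and kept only if replicate Pearson r >0.7 and median Z' >0.3.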

AFATINIB = compound: CN(C)C/C=C/C(=O)Nc1cc2c(Nc3ccc(F)c(Cl)c3)ncnc2cc1O[C@H]1CCOC1 [AFATINIB]; test: as above; conditions: exposure time: 5 days
Procedure, shortened: as §1

Test System | surviving fraction (TIOGUANINE; 0.5 nM) | surviving fraction (TIOGUANINE; 1 nM) | surviving fraction (TIOGUANINE; 5 nM) | surviving fraction (TIOGUANINE; 10 nM) | surviving fraction (TIOGUANINE; 50 nM) | surviving fraction (TIOGUANINE; 100 nM) | surviving fraction (TIOGUANINE; 500 nM) | surviving fraction (TIOGUANINE; 1000 nM) | surviving fraction (AFATINIB; 0.5 nM) | surviving fraction (AFATINIB; 1 nM) | surviving fraction (AFATINIB; 5 nM) | surviving fraction (AFATINIB; 10 nM) | surviving fraction (AFATINIB; 50 nM) | surviving fraction (AFATINIB; 100 nM) | surviving fraction (AFATINIB; 500 nM) | surviving fraction (AFATINIB; 1000 nM)
VP229 BREAST | 1.07 ± 0.089 | 1.06 ± 0.053 | 1.03 ± 0.031 | 1.04 ± 0.057 | 1.11 ± 0.14 | 1.1 ± 0.012 | 1.14 ± 0.17 | 1.08 ± 0.15 | 1.1 ± 0.11 | 1.03 ± 0.13 | 0.645 ± 0.079 | 0.586 ± 0.076 | 0.324 ± 0.011 | 0.273 ± 0.04 | 0.272 ± 0.021 | 0.165 ± 0.025
HOSMNG BONE | 0.991 ± 0.03 | 1.01 ± 0.029 | 0.988 ± 0.068 | 0.989 ± 0.016 | 1.05 ± 0.047 | 1.02 ± 0.089 | 1.04 ± 0.037 | 0.983 ± 0.028 | 0.944 ± 0.077 | 0.974 ± 0.04 | 0.98 ± 0.021 | 0.915 ± 0.11 | 1.04 ± 0.054 | 1.02 ± 0.13 | 1.06 ± 0.048 | 0.991 ± 0.088
MDAMB453 BREAST | 1.01 ± 0.073 | 0.999 ± 0.053 | 1.04 ± 0.027 | 1.02 ± 0.04 | 1.08 ± 0.03 | 1.03 ± 0.029 | 0.98 ± 0.13 | 0.864 ± 0.09 | 1.08 ± 0.061 | 1 ± 0.045 | 1.05 ± 0.064 | 1.05 ± 0.029 | 0.777 ± 0.076 | 0.668 ± 0.091 | 0.576 ± 0.027 | 0.41 ± 0.026
HCC70 BREAST | 1.05 ± 0.03 | 0.896 ± 0.043 | 1.03 ± 0.069 | 1 ± 0.013 | 1.04 ± 0.13 | 1.02 ± 0.052 | 1.04 ± 0.059 | 1.04 ± 0.1 | 1.02 ± 0.064 | 0.981 ± 0.067 | 1 ± 0.015 | 0.965 ± 0.092 | 0.967 ± 0.022 | 1.02 ± 0.093 | 0.962 ± 0.016 | 0.827 ± 0.1
HT1080 SOFT TISSUE | 1 ± 0.012 | 0.989 ± 0.026 | 0.982 ± 0.016 | 1.04 ± 0.016 | 1.02 ± 0.041 | 0.974 ± 0.022 | 0.81 ± 0.013 | 0.594 ± 0.036 | 0.994 ± 0.033 | 1.02 ± 0.015 | 1.037 ± 0.0045 | 0.991 ± 0.048 | 0.985 ± 0.036 | 1 ± 0.047 | 0.943 ± 0.031 | 0.729 ± 0.055
SJSA1 BONE | 1.05 ± 0.038 | 1.05 ± 0.092 | 1.033 ± 0.0062 | 1.01 ± 0.035 | 1.1 ± 0.041 | 1.08 ± 0.036 | 1.016 ± 0.0081 | 0.912 ± 0.019 | 1.05 ± 0.014 | 0.9563 ± 0.0055 | 1.11 ± 0.017 | 1.04 ± 0.05 | 1.15 ± 0.063 | 1.07 ± 0.023 | 0.995 ± 0.041 | 0.613 ± 0.033
HCC1806 BREAST | 0.989 ± 0.061 | 1.1 ± 0.059 | 1.08 ± 0.11 | 1.08 ± 0.12 | 1.13 ± 0.15 | 1.13 ± 0.19 | 1.03 ± 0.12 | 0.952 ± 0.061 | 1.1 ± 0.084 | 1 ± 0.038 | 0.893 ± 0.071 | 0.726 ± 0.075 | 0.57 ± 0.045 | 0.586 ± 0.028 | 0.401 ± 0.036 | 0.343 ± 0.03
HS578T BREAST | 0.998 ± 0.085 | 0.872 ± 0.14 | 0.944 ± 0.082 | 0.959 ± 0.075 | 0.923 ± 0.12 | 0.985 ± 0.12 | 1.01 ± 0.068 | 0.897 ± 0.17 | 1.01 ± 0.096 | 0.937 ± 0.017 | 1.08 ± 0.13 | 1.12 ± 0.039 | 1.17 ± 0.13 | 1.02 ± 0.052 | 0.662 ± 0.054 | 0.243 ± 0.048
T47D BREAST | 1.03 ± 0.025 | 0.984 ± 0.038 | 0.964 ± 0.016 | 0.998 ± 0.029 | 1.08 ± 0.045 | 1.06 ± 0.072 | 1.03 ± 0.061 | 0.978 ± 0.011 | 1.06 ± 0.033 | 1.04 ± 0.06 | 1.01 ± 0.031 | 0.98 ± 0.023 | 1.04 ± 0.013 | 1.08 ± 0.022 | 1.07 ± 0.054 | 0.939 ± 0.037
ZR751 BREAST | 1.01 ± 0.07 | 0.969 ± 0.16 | 0.82 ± 0.16 | 0.897 ± 0.064 | 1.12 ± 0.13 | 1.02 ± 0.16 | 1.04 ± 0.013 | 1.07 ± 0.15 | 1.14 ± 0.15 | 0.982 ± 0.17 | 0.979 ± 0.058 | 0.926 ± 0.13 | 0.746 ± 0.097 | 0.87 ± 0.1 | 0.671 ± 0.083 | 0.536 ± 0.068
